Data from patent US8198273B2, “Compounds and methods for kinase modulation, and indications therefor” (Plexxikon Inc., priority 2009, dated 2012).
pIC50: −log10 of the molar value.

Columns and labels:
CYP3A4(BQ) = CYP3A4(BQ) (Homo sapiens, UniProt P08684); experiment: CYP3A4(BQ) inhibition (fluorescent substrate); assay type: in vitro ADME; details: read-out: Cyp IC50 3A4(BQ)
Procedure: CYP (Cytochrome P450) enzymes are the major drug metabolizing enzymes present in the liver. The inhibition of CYP enzyme activity (IC50) for each of CYP1A2, CYP2C19, CYP2C9, CYP2D6, CYP3A4(BFC) and CYP3A4(BQ) is determined for compounds, where inhibition of metabolism of a known substrate leads to a decrease in the fluorescence of the metabolized product. The fluorescence of the product is monitored as a function of compound concentration. Compounds are dissolved in dimethyl sulfoxide to a concentration of 100 mM. These are diluted 1 μL into 82 μL of acetonitrile. […] These are then serially diluted 1:1 (160 μL to 160 μL co-factor mix) for a total of 10 points. A 10 μL aliquot of this final mixture is dispensed into 384 well assay plates and incubated for 10 minutes at 37° C. […] Assay plates are incubated at 37° C. […] The signal versus compound concentration is used to determine the IC50. The enzymes and substrates for this assay are obtained from BD Biosciences.

[1] = system: A375 melanoma cells (B-Raf V600E); experiment: A375 cell growth inhibition (ATPlite); assay type: cell-based; details: Homo sapiens, A-375, 72 h; A375, 3 days incubation
How it was run: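 ATPlite luminescence, taken as a cell-number measure, gave IC50 values after a 3-day 37° C, 5% CO2 incubation. Compounds were tested as 8-point threefold titrations, highest final concentration 10 μM, added to cells seeded the day before.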

CYP3A4(BQ), sequence (P08684 whole entry): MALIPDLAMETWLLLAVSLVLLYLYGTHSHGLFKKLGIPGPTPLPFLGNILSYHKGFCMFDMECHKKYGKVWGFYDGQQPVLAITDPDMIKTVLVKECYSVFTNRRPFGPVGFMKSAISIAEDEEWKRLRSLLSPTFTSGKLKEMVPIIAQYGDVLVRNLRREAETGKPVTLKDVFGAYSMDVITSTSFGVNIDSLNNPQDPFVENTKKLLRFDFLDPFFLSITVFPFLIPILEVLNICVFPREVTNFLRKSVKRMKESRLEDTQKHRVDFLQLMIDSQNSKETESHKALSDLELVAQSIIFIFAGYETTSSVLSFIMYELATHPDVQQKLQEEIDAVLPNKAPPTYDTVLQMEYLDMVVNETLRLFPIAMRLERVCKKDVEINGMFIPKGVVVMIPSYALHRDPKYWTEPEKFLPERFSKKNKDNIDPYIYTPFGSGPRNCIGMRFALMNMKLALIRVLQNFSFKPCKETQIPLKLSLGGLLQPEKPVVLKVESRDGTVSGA

pIC50 (CYP3A4(BQ))	pIC50 [1]	SMILES
< 5.00	> 6.00	CCCS(=O)(=O)Nc1ccc(F)c(C(=O)c2c[nH]c3ncc(-c4cnc(C)nc4)cc23)c1F [P-2211, Propane-1-sulfonic acid {2,4-difluoro-3-[5-(2-methyl-pyrimidin-5-yl)-1H-pyrrolo[2,3-b]pyridine-3-carbonyl]-phenyl}-amide]
< 5.00	> 6.00	CCCS(=O)(=O)Nc1ccc(F)c(C(=O)c2c[nH]c3ncc(-c4ccc(S(=O)(=O)N5CCOCC5)cc4)cc23)c1F [P-2166, Propane-1-sulfonic acid (2,4-difluoro-3-{5-[4-(morpholine-4-sulfonyl)-phenyl]-1H-pyrrolo[2,3-b]pyridine-3-carbonyl}-phenyl)-amide]
< 5.00	> 7.00	CCCS(=O)(=O)Nc1ccc(F)c(C(=O)c2c[nH]c3ncc(-c4ccc(S(=O)(=O)N(C)C)cc4)cc23)c1F [P-2185, 4-{3-[2,6-Difluoro-3-(propane-1-sulfonylamino)-benzoyl]-1H-pyrrolo[2,3-b]pyridin-5-yl}-N,N-dimethyl-benzenesulfonamide]
< 5.00	> 6.00	CCCS(=O)(=O)Nc1ccc(F)c(C(=O)c2c[nH]c3ncc(-c4cccc(S(C)(=O)=O)c4)cc23)c1F [P-2228, Propane-1-sulfonic acid {2,4-difluoro-3-[5-(3-methanesulfonyl-phenyl)-1H-pyrrolo[2,3-b]pyridine-3-carbonyl]-phenyl}-amide]
	> 7.00	CCCS(=O)(=O)Nc1ccc(F)c(C(=O)c2c[nH]c3ncc(-c4cnc(N5CCCC5)nc4)cc23)c1F [P-2219, Propane-1-sulfonic acid {2,4-difluoro-3-[5-(2-pyrrolidin-1-yl-pyrimidin-5-yl)-1H-pyrrolo[2,3-b]pyridine-3-carbonyl]-phenyl}-amide]
< 5.00	> 6.00	CCCS(=O)(=O)Nc1ccc(F)c(C(=O)c2c[nH]c3ncc(-c4ccc(Cl)nc4)cc23)c1F [P-2154, Propane-1-sulfonic acid {3-[5-(6-chloro-pyridin-3-yl)-1H-pyrrolo[2,3-b]pyridine-3-carbonyl]-2,4-difluoro-phenyl}-amide]
< 5.00	> 6.00	CCCS(=O)(=O)Nc1ccc(F)c(C(=O)c2c[nH]c3ncc(-c4ccc(OC)nc4OC)cc23)c1F [P-2184, Propane-1-sulfonic acid {3-[5-(2,6-dimethoxy-pyridin-3-yl)-1H-pyrrolo[2,3-b]pyridine-3-carbonyl]-2,4-difluoro-phenyl}-amide]
< 5.00	> 7.00	CCCS(=O)(=O)Nc1ccc(F)c(C(=O)c2c[nH]c3ncc(-c4ccc(S(C)(=O)=O)cc4)cc23)c1F [P-2183, Propane-1-sulfonic acid {2,4-difluoro-3-[5-(4-methanesulfonyl-phenyl)-1H-pyrrolo[2,3-b]pyridine-3-carbonyl]-phenyl}-amide]
< 5.00	> 7.00	CCCS(=O)(=O)Nc1ccc(F)c(C(=O)c2c[nH]c3ncc(-c4ccc(CCCOC)nc4)cc23)c1F [P-2226, Propane-1-sulfonic acid (2,4-difluoro-3-{5-[6-(3-methoxy-propyl)-pyridin-3-yl]-1H-pyrrolo[2,3-b]pyridine-3-carbonyl}-phenyl)-amide]
< 5.00	> 5.00	CCCS(=O)(=O)Nc1ccc(F)c(C(=O)c2c[nH]c3ncc(-c4cncc(S(C)(=O)=O)c4)cc23)c1F [P-2188, Propane-1-sulfonic acid {2,4-difluoro-3-[5-(5-methanesulfonyl-pyridin-3-yl)-1H-pyrrolo[2,3-b]pyridine-3-carbonyl]-phenyl}-amide]
< 5.00	> 6.00	CCCS(=O)(=O)Nc1ccc(F)c(C(=O)c2c[nH]c3ncc(-c4ccc(N)nc4)cc23)c1F [P-2214, Propane-1-sulfonic acid {3-[5-(6-amino-pyridin-3-yl)-1H-pyrrolo[2,3-b]pyridine-3-carbonyl]-2,4-difluoro-phenyl}-amide]
< 5.00	> 6.00	CCCS(=O)(=O)Nc1ccc(F)c(C(=O)c2c[nH]c3ncc(-c4ccc(C(=O)NCC)nc4)cc23)c1F [P-2151, 5-{3-[2,6-Difluoro-3-(propane-1-sulfonylamino)-benzoyl]-1H-pyrrolo[2,3-b]pyridin-5-yl}-pyridine-2-carboxylic acid ethylamide]
	> 6.00	CCCS(=O)(=O)Nc1ccc(F)c(C(=O)c2c[nH]c3ncc(-c4ccc(S(=O)(=O)NC5CC5)cc4)cc23)c1F [P-2168, N-Cyclopropyl-4-{3-[2,6-difluoro-3-(propane-1-sulfonylamino)-benzoyl]-1H-pyrrolo[2,3-b]pyridin-5-yl}-benzenesulfonamide]

Second part, the compound before the results:

SMILES	pIC50 (CYP3A4(BQ))	pIC50 [1]
COc1ncc(-c2cnc3[nH]cc(C(=O)c4c(F)ccc(NS(=O)(=O)c5c(F)cccc5F)c4F)c3c2)cn1 [P-2043, N-{2,4-Difluoro-3-[5-(2-methoxy-pyrimidin-5-yl)-1H-pyrrolo[2,3-b]pyridine-3-carbonyl]-phenyl}-2,6-difluoro-benzenesulfonamide]	< 5.00	> 5.30
COc1ccnc2[nH]cc(C(=O)c3c(F)ccc(NS(=O)(=O)c4cccnc4)c3F)c12 [P-2073, Pyridine-3-sulfonic acid [2,4-difluoro-3-(4-methoxy-1H-pyrrolo[2,3-b]pyridine-3-carbonyl)-phenyl]-amide]	> 5.30	> 5.00
COc1ncc(-c2cnc3[nH]cc(C(=O)c4c(F)ccc(NS(=O)(=O)c5cc(F)ccc5F)c4F)c3c2)cn1 [P-2042, N-{2,4-Difluoro-3-[5-(2-methoxy-pyrimidin-5-yl)-1H-pyrrolo[2,3-b]pyridine-3-carbonyl]-phenyl}-2,5-difluoro-benzenesulfonamide]	< 5.00	> 6.00
COc1ccnc2[nH]cc(C(=O)c3c(F)ccc(NS(=O)(=O)c4ccccc4F)c3F)c12 [P-2021, N-[2,4-Difluoro-3-(4-methoxy-1H-pyrrolo[2,3-b]pyridine-3-carbonyl)-phenyl]-2-fluoro-benzenesulfonamide]	< 5.00	> 6.00
N#Cc1cnc2[nH]cc(C(=O)c3cccc(NS(=O)(=O)c4ccccc4F)c3F)c2c1 [P-2051, N-[3-(5-Cyano-1H-pyrrolo[2,3-b]pyridine-3-carbonyl)-2-fluoro-phenyl]-2-fluoro-benzenesulfonamide]	< 5.00	> 6.00
CCCS(=O)(=O)Nc1ccc(F)c(C(=O)c2c[nH]c3ncc(-c4cnc(N5CCOCC5)nc4)cc23)c1F [P-2197, Propane-1-sulfonic acid {2,4-difluoro-3-[5-(2-morpholin-4-yl-pyrimidin-5-yl)-1H-pyrrolo[2,3-b]pyridine-3-carbonyl]-phenyl}-amide]	< 5.00	> 6.00
COc1ncc(-c2cnc3[nH]cc(C(=O)c4c(F)ccc(NS(=O)(=O)c5cccc(F)c5)c4F)c3c2)cn1 [P-2045, N-{2,4-Difluoro-3-[5-(2-methoxy-pyrimidin-5-yl)-1H-pyrrolo[2,3-b]pyridine-3-carbonyl]-phenyl}-3-fluoro-benzenesulfonamide]	< 5.00	> 5.30
O=C(c1c(F)ccc(NS(=O)(=O)c2c(F)cccc2F)c1F)c1c[nH]c2nccc(Cl)c12 [P-2033, N-[3-(4-Chloro-1H-pyrrolo[2,3-b]pyridine-3-carbonyl)-2,4-difluoro-phenyl]-2,6-difluoro-benzenesulfonamide]	< 5.00	> 5.30
CCCS(=O)(=O)Nc1ccc(F)c(C(=O)c2c[nH]c3ncc(-c4cnc(OC)nc4OC)cc23)c1F [P-2199, Propane-1-sulfonic acid {3-[5-(2,4-dimethoxy-pyrimidin-5-yl)-1H-pyrrolo[2,3-b]pyridine-3-carbonyl]-2,4-difluoro-phenyl}-amide]	< 5.00	> 5.30
COc1ccnc2[nH]cc(C(=O)c3c(F)ccc(NS(=O)(=O)c4c(F)cccc4F)c3F)c12 [P-2031, N-[2,4-Difluoro-3-(4-methoxy-1H-pyrrolo[2,3-b]pyridine-3-carbonyl)-phenyl]-2,6-difluoro-benzenesulfonamide]	< 5.00	> 5.30
N#Cc1cnc2[nH]cc(C(=O)c3c(F)ccc(NS(=O)(=O)c4c(F)cccc4F)c3F)c2c1 [P-2029, N-[3-(5-Cyano-1H-pyrrolo[2,3-b]pyridine-3-carbonyl)-2,4-difluoro-phenyl]-2,6-difluoro-benzenesulfonamide]	< 5.00	> 5.30
COc1ncc(-c2cnc3[nH]cc(C(=O)c4c(F)ccc(NS(=O)(=O)c5ccccc5F)c4F)c3c2)cn1 [P-2041, N-{2,4-Difluoro-3-[5-(2-methoxy-pyrimidin-5-yl)-1H-pyrrolo[2,3-b]pyridine-3-carbonyl]-phenyl}-2-fluoro-benzenesulfonamide]	< 5.00	> 6.00
N#Cc1cnc2[nH]cc(C(=O)c3c(F)ccc(NS(=O)(=O)c4cccnc4)c3F)c2c1 [P-2072, Pyridine-3-sulfonic acid [3-(5-cyano-1H-pyrrolo[2,3-b]pyridine-3-carbonyl)-2,4-difluoro-phenyl]-amide]	> 5.30	> 5.30
N#Cc1cnc2[nH]cc(C(=O)c3cccc(NS(=O)(=O)c4cccc(F)c4)c3F)c2c1 [P-2053, N-[3-(5-Cyano-1H-pyrrolo[2,3-b]pyridine-3-carbonyl)-2-fluoro-phenyl]-3-fluoro-benzenesulfonamide]	< 5.00	> 5.30
